Numbers after ± are expanded uncertainties.
Settings: 298.15 K; 101.33 kPa; Crystal; PPMS instrument (Quantum Design)

SMILES | molar entropy
O=P([O-])([O-])[O-].[Gd+3] [gadolinium orthophosphate] | 124.57 ± 5.6 J/K/mol
O=P([O-])([O-])[O-].[La+3] [lanthanum orthophosphate] | 108.24 ± 4.9 J/K/mol
